PubChem BioAssay AID1963438 (Molecular Pharmacology Branch, DTP, NCI, 2024)

Test system: NCI-H510 multicellular tumor spheroid growth, % test/control
Test: Anticancer human tumor NCI-H510 cell line growth inhibition [Asc];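 note: spheroids exposed to agents for 7 days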;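 for viability, T/C: 100% = DMSO vehicle control wells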
Settings: for IC50: curve of first compound; for viability, T/C: stronger effect = lower value
Procedure, shortened: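 Complex spheroids combining tumor cells with HUVEC endothelial cells and human MSCs, at 37 degrees C, 5% CO2; agents tested alone or combined, half-log dilutions from at or near clinical Cmax, or 10 microM if Cmax unknown.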

[1] = second compound 0.03 µM, first compound 0.00316 µM
[2] = second compound 0.03 µM, first compound 0.01 µM
[3] = second compound 0.03 µM, first compound 0.0316 µM
[4] = second compound 0.03 µM, first compound 0.1 µM
[5] = second compound 0.0949 µM, first compound 0.00316 µM
[6] = second compound 0.0949 µM, first compound 0.01 µM
[7] = second compound 0.0949 µM, first compound 0.0316 µM
[8] = second compound 0.0949 µM, first compound 0.1 µM
[9] = second compound 0.3 µM, first compound 0.00316 µM
[10] = second compound 0.3 µM, first compound 0.01 µM
[11] = second compound 0.3 µM, first compound 0.0316 µM
[12] = second compound 0.3 µM, first compound 0.1 µM
[13] = second compound 0.949 µM, first compound 0.00316 µM
[14] = second compound 0.949 µM, first compound 0.01 µM
[15] = second compound 0.949 µM, first compound 0.0316 µM
[16] = second compound 0.949 µM, first compound 0.1 µM
[17] = second compound 3 µM, first compound 0.00316 µM
[18] = second compound 3 µM, first compound 0.01 µM
[19] = second compound 3 µM, first compound 0.0316 µM
[20] = second compound 3 µM, first compound 0.1 µM

COc1c(OCCCN2CCOCC2)ccc2c3n(c(=NC(=O)c4cnc(N)nc4)nc12)CCN3 + CCN1C(C(=O)NC23CCC(C(=O)O)(CC2)CC3)C(c2cccc(Cl)c2F)C2(C(=O)Nc3cc(Cl)ccc32)C12CCCCC2
IC50 (second compound 0.03 µM): > 1000 nM
IC50 (second compound 0.0949 µM): > 1000 nM
IC50 (second compound 0.3 µM): > 1000 nM
IC50 (second compound 0.949 µM): > 1000 nM
IC50 (second compound 3 µM): > 1000 nM
viability, T/C [1]: 94.2%
viability, T/C [2]: 112%
viability, T/C [3]: 96.4%
viability, T/C [4]: 93.6%
viability, T/C (second compound 0.03 µM, first compound 0.316 µM): 70%
viability, T/C (second compound 0.03 µM, first compound 1 µM): 58.7%
viability, T/C [5]: 94.3%
viability, T/C [6]: 91%
viability, T/C [7]: 98.4%
viability, T/C [8]: 99.3%
viability, T/C (second compound 0.0949 µM, first compound 0.316 µM): 92.5%
viability, T/C (second compound 0.0949 µM, first compound 1 µM): 65.6%
viability, T/C [9]: 92.3%
viability, T/C [10]: 101%
viability, T/C [11]: 105%
viability, T/C [12]: 105%
viability, T/C (second compound 0.3 µM, first compound 0.316 µM): 95.6%
viability, T/C (second compound 0.3 µM, first compound 1 µM): 51.2%
viability, T/C [13]: 80.6%
viability, T/C [14]: 99.5%
viability, T/C [15]: 114%
viability, T/C [16]: 104%
viability, T/C (second compound 0.949 µM, first compound 0.316 µM): 62%
viability, T/C (second compound 0.949 µM, first compound 1 µM): 80.4%
viability, T/C [17]: 112%
viability, T/C [18]: 105%
viability, T/C [19]: 73.9%
viability, T/C [20]: 85%
viability, T/C (second compound 3 µM, first compound 0.316 µM): 86.5%
viability, T/C (second compound 3 µM, first compound 1 µM): 83.3%

NC(=O)C(=Cn1cnc(-c2cc(C(F)(F)F)cc(C(F)(F)F)c2)n1)c1cncnc1 + CCN1C(C(=O)NC23CCC(C(=O)O)(CC2)CC3)C(c2cccc(Cl)c2F)C2(C(=O)Nc3cc(Cl)ccc32)C12CCCCC2
IC50 (second compound 0.03 µM): 165 nM
IC50 (second compound 0.0949 µM): 183 nM
IC50 (second compound 0.3 µM): 138 nM
IC50 (second compound 0.949 µM): 180 nM
IC50 (second compound 3 µM): 54.3 nM
viability, T/C (second compound 0.03 µM, first compound 0.000949 µM): 113%
viability, T/C (second compound 0.03 µM, first compound 0.003 µM): 89.3%
viability, T/C (second compound 0.03 µM, first compound 0.00949 µM): 84.8%
viability, T/C (second compound 0.03 µM, first compound 0.03 µM): 106%
viability, T/C (second compound 0.03 µM, first compound 0.0949 µM): 56.9%
viability, T/C (second compound 0.03 µM, first compound 0.3 µM): 42.4%
viability, T/C (second compound 0.0949 µM, first compound 0.000949 µM): 88.4%
viability, T/C (second compound 0.0949 µM, first compound 0.003 µM): 121%
viability, T/C (second compound 0.0949 µM, first compound 0.00949 µM): 89.2%
viability, T/C (second compound 0.0949 µM, first compound 0.03 µM): 95.1%
viability, T/C (second compound 0.0949 µM, first compound 0.0949 µM): 65%
viability, T/C (second compound 0.0949 µM, first compound 0.3 µM): 38.6%
viability, T/C (second compound 0.3 µM, first compound 0.000949 µM): 80.7%
viability, T/C (second compound 0.3 µM, first compound 0.003 µM): 94.9%
viability, T/C (second compound 0.3 µM, first compound 0.00949 µM): 93.9%
viability, T/C (second compound 0.3 µM, first compound 0.03 µM): 87.3%
viability, T/C (second compound 0.3 µM, first compound 0.0949 µM): 58.4%
viability, T/C (second compound 0.3 µM, first compound 0.3 µM): 32.4%
viability, T/C (second compound 0.949 µM, first compound 0.000949 µM): 106%
viability, T/C (second compound 0.949 µM, first compound 0.003 µM): 87.1%
viability, T/C (second compound 0.949 µM, first compound 0.00949 µM): 99.3%
viability, T/C (second compound 0.949 µM, first compound 0.03 µM): 79.9%
viability, T/C (second compound 0.949 µM, first compound 0.0949 µM): 93.5%
viability, T/C (second compound 0.949 µM, first compound 0.3 µM): 15.3%
viability, T/C (second compound 3 µM, first compound 0.000949 µM): 90.1%
viability, T/C (second compound 3 µM, first compound 0.003 µM): 106%
viability, T/C (second compound 3 µM, first compound 0.00949 µM): 108%
viability, T/C (second compound 3 µM, first compound 0.03 µM): 84%
viability, T/C (second compound 3 µM, first compound 0.0949 µM): 18.3%
viability, T/C (second compound 3 µM, first compound 0.3 µM): 14.9%

NC1CCC(NC2CC2c2ccccc2)CC1 (stereo not given) + CCN1C(C(=O)NC23CCC(C(=O)O)(CC2)CC3)C(c2cccc(Cl)c2F)C2(C(=O)Nc3cc(Cl)ccc32)C12CCCCC2
IC50 (second compound 0.03 µM): > 100 nM
IC50 (second compound 0.0949 µM): > 100 nM
IC50 (second compound 0.3 µM): > 100 nM
IC50 (second compound 0.949 µM): > 100 nM
IC50 (second compound 3 µM): 84.8 nM
viability, T/C (second compound 0.03 µM, first compound 0.000316 µM): 85.9%
viability, T/C (second compound 0.03 µM, first compound 0.001 µM): 84.4%
viability, T/C [1]: 82.5%
viability, T/C [2]: 81.9%
viability, T/C [3]: 92.4%
viability, T/C [4]: 91.9%
viability, T/C (second compound 0.0949 µM, first compound 0.000316 µM): 101%
viability, T/C (second compound 0.0949 µM, first compound 0.001 µM): 71.6%
viability, T/C [5]: 77.5%
viability, T/C [6]: 78.7%
viability, T/C [7]: 60.6%
viability, T/C [8]: 71.3%
viability, T/C (second compound 0.3 µM, first compound 0.000316 µM): 92.4%
viability, T/C (second compound 0.3 µM, first compound 0.001 µM): 85.8%
viability, T/C [9]: 98.3%
viability, T/C [10]: 95.8%
viability, T/C [11]: 73.3%
viability, T/C [12]: 55.8%
viability, T/C (second compound 0.949 µM, first compound 0.000316 µM): 83.8%
viability, T/C (second compound 0.949 µM, first compound 0.001 µM): 92.9%
viability, T/C [13]: 90.6%
viability, T/C [14]: 80.8%
viability, T/C [15]: 72.3%
viability, T/C [16]: 60.5%
viability, T/C (second compound 3 µM, first compound 0.000316 µM): 106%
viability, T/C (second compound 3 µM, first compound 0.001 µM): 82.3%
viability, T/C [17]: 79.8%
viability, T/C [18]: 75.2%
viability, T/C [19]: 60%
viability, T/C [20]: 46.6%
